Source: patent publication US4377697A, “Imidazole hydrazone and hydrazine derivatives” (priority 1982, dated 1983)
Values after ≈ are worked out from the molar mass of the structure shown. Structures can show the parent of a compound that is named as a salt. Where two headings read alike, the source gives them in different places.

Key:
[1] = system: Desulfovibrio desulfuricans; assay: in vitro assay against non-pathogenic anaerobe, minimum inhibitory concentration; assay type: cell-based; conditions: 24 hours at 37° C., anaerobic, range of three runs; for MIC: Desulfovibrio desulfuricans, 24 h
Method: These preparations were incubated for 24 hours at 37° C. under anaerobic conditions and were then examined for the presence of growth as indicated by the turbidity in the liquid medium. […] The tests were conducted as described for the pathogenic organisms discussed above.

[2] = system: Clostridium sporogenes; assay: in vitro anti-anaerobic assay, minimum inhibitory concentration; assay type: cell-based, Clostridium sporogenes (ATCC 19404); conditions: ATCC 19404, 24 hours at 37° C., range of three runs; for MIC: Clostridium sporogenes, ATCC19404, 24 h, read-out: Minimum Inhibitory Concentrations, Clostridium sporogenes
Method: (§1) The results of in vitro assays for a number of compounds according to the invention are given in Table 1, which follows the Examples.
(§2) These tests were conducted by mixing a series of decreasing amounts of the compound under test with a liquid nutrient medium that had been inoculated with one of the test organisms. These preparations were incubated for 24 hours at 37° C. under anaerobic conditions and were then examined for the presence of growth as indicated by the turbidity in the liquid medium. Results were recorded as the lowest concentrations, in mg/l, of test compound that prevented growth of the test organisms (minimal inhibitory concentrations). Each test was run three times and the range of results are indicated.

[3] = system: Propionibacterium acnes; assay: as above; assay type: cell-based, Propionibacterium acnes (ATCC 6919); conditions: Cutibacterium acnes, ATCC6919, ATCC 6919, 24 hours at 37° C., range of three runs, read-out: Minimum Inhibitory Concentrations, Propionibacterium acnes
Method: as §1, §2

[4] = system: Bacterioides fragilis; assay: as above; assay type: cell-based, Bacterioides fragilis (ATCC 23745); conditions: ATCC 23745, 24 hours at 37° C., range of three runs; for MIC: 24 h, read-out: Minimum Inhibitory Concentrations, Bacterioides fragilis
Method: as §1, §2

[5] = system: Trichophyton mentagrophytes; assay: in vitro anti-fungal assay, minimum inhibitory concentration; assay type: cell-based; conditions: aerobic, 30° C., in duplicate, read-out: Minimum Inhibitory Concentrations, Trichophyton mentagrophytes
Method: as §2
(§3) The tests were conducted as described for the anaerobic bacteria with the exception that the organisms were incubated aerobically and kept at 30° C., apart from C.albicans which was kept at 37° C. Each test was run in duplicate.

[6] = system: Candida albicans; assay: as above; assay type: cell-based
Method: as §2, §3

[7] = system: Microsporum canis; assay: as above; assay type: cell-based; conditions: aerobic, 30° C., in duplicate, read-out: Minimum Inhibitory Concentrations, Microsporum canis
Method: as §2, §3

[8] = system: Trichophyton rubrum; assay: as above; assay type: cell-based; conditions: aerobic, 30° C., in duplicate, read-out: Minimum Inhibitory Concentrations, Trichophyton rubrum
Method: as §2, §3

[9] = system: Epidermophyton floccosom; assay: as above; assay type: cell-based, Epidermophyton floccosum; conditions: aerobic, 30° C., in duplicate, read-out: Minimum Inhibitory Concentrations, Epidermophyton floccosom
Method: as §2, §3

[10] = system: anaerobic bacteria; conditions: known from the literature; cited from earlier work
[11] = reported in the literature; cited from earlier work
[12] = AIP-BREWER, read-out: Minimum Inhibitory Concentrations, D.desulfuricans AIP-BREWER
[13] = API SW2, read-out: Minimum Inhibitory Concentrations, D.desulfuricans API SW2
[14] = API-CORE, read-out: Minimum Inhibitory Concentrations, Desulfovibrio desulfuricans API-CORE
[15] = strain 3153, aerobic, 37° C., in duplicate, read-out: Minimum Inhibitory Concentrations, C.albicans 3153
[16] = strain A, aerobic, 37° C., in duplicate, read-out: Minimum Inhibitory Concentrations, Candida albicans A
[17] = strain B, aerobic, 37° C., in duplicate, read-out: Minimum Inhibitory Concentrations, C.albicans B
[18] = strain GB, aerobic, 37° C., in duplicate, read-out: Minimum Inhibitory Concentrations, C.albicans GB

| Compound | MIC [2] | MIC [3] | MIC [4] | MIC [1, 12] | MIC [1, 13] | MIC [1, 14] | MIC [5] | MIC [6, 15] | MIC [6, 16] | MIC [6, 17] | MIC [7] | MIC [8] | other results |
| --- | --- | --- | --- | --- | --- | --- | --- | --- | --- | --- | --- | --- | --- |
| Clc1ccc(NN=C2c3ccccc3CCCC2n2ccnc2)c(Cl)c1 (centres unmarked) [1 (a), 6-(1H-imidazol-1-yl)6,7,8,9-tetrahydro-5-benzocycloheptanone, 2,4-dichlorophenylhydrazone, hydrogen oxalate] | 0.5 to 2.5 µg/mL | 2.5 µg/mL | 1 to 2.5 µg/mL |  |  |  |  |  |  |  |  |  | Minimum Inhibitory Concentrations, D.desulfuricans AIP-BREWER ([1]; AIP-BREWER): 0.5 mg/L; Minimum Inhibitory Concentrations, D.desulfuricans API SW2 ([1]; API SW2): 0.5 mg/L |
| Clc1ccc(NN=C2c3ccccc3CCCC2n2ccnc2)c(Cl)c1 (centres unmarked) [1 (b), 6-(1H-imidazol-1-yl)-6,7,8,9-tetrahydro-5-benzocycloheptanone, 2,4-dichlorophenylhydrazone, hydrochloride] |  |  |  | 0.5 to 0.75 µg/mL | 0.5 to 1 µg/mL | 0.5 µg/mL |  |  |  |  |  |  | Minimum Inhibitory Concentrations, Clostridium sporogenes ([2]; hydrochloride): 0.5 to 1.0 mg/L; Minimum Inhibitory Concentrations, Bacterioides fragilis ([4]; hydrochloride): 0.5 to 1.0 mg/L |
| Clc1ccc(NN=C2c3ccccc3CCCCC2n2ccnc2)c(Cl)c1 (centres unmarked) [1 (d), 6-(1H-Imidazol-1-yl)-7,8,9,10-tetrahydro-5(6H)-benzocyclooctanone, 2,4-dichlorophenylhydrazone hydrochloride] | 0.5 to 0.75 µg/mL | 0.5 to 2.5 µg/mL | 1 to 2.5 µg/mL | 0.5 to 1 µg/mL | 0.5 to 0.75 µg/mL | 0.5 to 2.5 µg/mL |  |  |  |  |  |  |  |
| Clc1ccc(NN=C2c3sccc3CCCC2n2ccnc2)c(Cl)c1 (centres unmarked) [1 (j), 7-(1H-Imidazol-1-yl)-4,5,6,7-tetrahydro-8H-cyclohepta[b]-thiophen-8-one, 2 ,4-dichlorophenylhydrazone hydrogen oxalate] | 1 to 2.5 µg/mL | 5 µg/mL | 0.75 to 1 µg/mL | 0.5 to 0.75 µg/mL | 0.75 to 1 µg/mL | 0.75 to 1 µg/mL |  |  |  |  |  |  |  |
| Clc1cc(Cl)c(NN=C2c3ccc(Cl)cc3CCCC2n2ccnc2)c(Cl)c1 (centres unmarked) [3 (b), 2-Chloro-6-(1H-imidazol-1-yl)-6,7,8,9-tetrahydro-5-benzocycloheptanone,2,4,6-trichlorophenylhydrazone hydrochloride] | 0.75 to 1 µg/mL | 5 µg/mL | 0.75 to 1 µg/mL | 0.75 µg/mL | 0.75 to 2.5 µg/mL | 0.75 to 1 µg/mL | 25 µg/mL | 6.2 µg/mL | 6.2 µg/mL | 6.2 µg/mL | 25 µg/mL |  | MIC [6, 18]: 6.2 µg/mL |
| Clc1cc(Cl)c(NN=C2c3ccccc3CCCCC2n2ccnc2)c(Cl)c1 (centres unmarked) [3 (c), 6-(1H-Imidazol-1-yl)-7,8,9,10-tetrahydro-5(6H)-benzocyclooctanone, 2,4,6-trichlorophenylhydrazone hydrochloride] | 0.5 to 1 µg/mL | 2.5 µg/mL | 2.5 µg/mL | 0.5 to 0.75 µg/mL | 0.5 to 0.75 µg/mL | 0.75 to 1 µg/mL |  |  |  |  |  |  |  |
| Clc1cc(Cl)c(NN=C2c3ccccc3CCCC2n2ccnc2)c(Cl)c1 (centres unmarked) [3 (d), 6-(1H-Imidazol-1-yl)-6,7,8,9-tetrahydro-5-benzocycloheptanone, 2,4,6-trichlorophenylhydrazone hydrogen oxalate] |  |  |  |  |  |  | > 100 µg/mL | 12.5 µg/mL | 6.2 µg/mL | 6.2 µg/mL | 6.2 µg/mL | 1.5 µg/mL | MIC [6, 18]: 12.5 µg/mL |
| Cl.Clc1cc(Cl)c(NN=C2c3ccccc3OCCC2n2ccnc2)c(Cl)c1 (centres unmarked) [3 (i), 3,4-Dihydro-4-(1H-imidazol-1-yl)-1-benzoxepin-5(2H)-one, 2,4,6-trichlorophenylhydrazone hydrochloride] |  |  |  |  |  |  | 3.1 µg/mL | 12.5 µg/mL | 12.5 µg/mL | 12.5 µg/mL | 3.1 µg/mL | 6.2 µg/mL | MIC [9]: 3.1 µg/mL |
| Clc1cc(Cl)c(NN=C2c3ccsc3CCCC2n2ccnc2)c(Cl)c1 (centres unmarked) [3 (l), 5-(1H-Imidazol-1-yl)-5,6,7,8-tetrahydro-4H-cyclohepta[b]thiophen-4-one,2,4,6-trichlorophenylhydrazone hydrogen oxalate] |  |  |  |  |  |  | 25 µg/mL | 12.5 µg/mL | 6.2 µg/mL | 6.2 µg/mL | 12.5 µg/mL | 12.5 µg/mL | MIC [9]: 6.2 µg/mL |
| Cc1ncc([N+](=O)[O-])n1CCO [Metronidazole, metronidazole, reference compound] | 0.5 µg/mL (≈ 2.92 µM) | > 100 µg/mL | 0.5 µg/mL (≈ 2.92 µM) | 0.5 µg/mL (≈ 2.92 µM) | 0.5 µg/mL (≈ 2.92 µM) | 0.5 µg/mL (≈ 2.92 µM) |  |  |  |  |  |  | activity against anaerobic bacteria [10]: active against anaerobic bacteria; teratogenicity [11]: teratogenic |
| Clc1ccc(COC(Cn2ccnc2)c2ccc(Cl)cc2Cl)c(Cl)c1 (centres unmarked) [Miconazole, reference compound] |  |  |  |  |  |  | 1.5 µg/mL (≈ 3.6 µM) |  |  |  | 6.2 µg/mL (≈ 14.9 µM) | 3.1 µg/mL (≈ 7.45 µM) | MIC [9]: 6.2 µg/mL (≈ 14.9 µM); MIC ([6]; read-out: Minimum Inhibitory Concentrations, C.albicans 3153): 12.5 µg/mL (≈ 30 µM); MIC ([6]; read-out: Minimum Inhibitory Concentrations, C.albicans B): 6.2 µg/mL (≈ 14.9 µM); MIC ([6]; read-out: Minimum Inhibitory Concentrations, C.albicans GB): 12.5 µg/mL (≈ 30 µM); MIC ([6]; read-out: Minimum Inhibitory Concentrations, Candida albicans A): 6.2 µg/mL (≈ 14.9 µM) |
